The source of these data is patent publication US20210198277A1, “AMINE-SUBSTITUTED ARYL OR HETEROARYL COMPOUNDS” (Epizyme, Inc., priority 2016, published 2021).

A value given as a limit tells only on which side of the number the result lay.

For one experiment, the target named is T1, EHMT2 (Homo sapiens, UniProt Q96KQ7).
T1 construct: host or cells: MDA-MB-231
T1 sequence (Q96KQ7 1-1210): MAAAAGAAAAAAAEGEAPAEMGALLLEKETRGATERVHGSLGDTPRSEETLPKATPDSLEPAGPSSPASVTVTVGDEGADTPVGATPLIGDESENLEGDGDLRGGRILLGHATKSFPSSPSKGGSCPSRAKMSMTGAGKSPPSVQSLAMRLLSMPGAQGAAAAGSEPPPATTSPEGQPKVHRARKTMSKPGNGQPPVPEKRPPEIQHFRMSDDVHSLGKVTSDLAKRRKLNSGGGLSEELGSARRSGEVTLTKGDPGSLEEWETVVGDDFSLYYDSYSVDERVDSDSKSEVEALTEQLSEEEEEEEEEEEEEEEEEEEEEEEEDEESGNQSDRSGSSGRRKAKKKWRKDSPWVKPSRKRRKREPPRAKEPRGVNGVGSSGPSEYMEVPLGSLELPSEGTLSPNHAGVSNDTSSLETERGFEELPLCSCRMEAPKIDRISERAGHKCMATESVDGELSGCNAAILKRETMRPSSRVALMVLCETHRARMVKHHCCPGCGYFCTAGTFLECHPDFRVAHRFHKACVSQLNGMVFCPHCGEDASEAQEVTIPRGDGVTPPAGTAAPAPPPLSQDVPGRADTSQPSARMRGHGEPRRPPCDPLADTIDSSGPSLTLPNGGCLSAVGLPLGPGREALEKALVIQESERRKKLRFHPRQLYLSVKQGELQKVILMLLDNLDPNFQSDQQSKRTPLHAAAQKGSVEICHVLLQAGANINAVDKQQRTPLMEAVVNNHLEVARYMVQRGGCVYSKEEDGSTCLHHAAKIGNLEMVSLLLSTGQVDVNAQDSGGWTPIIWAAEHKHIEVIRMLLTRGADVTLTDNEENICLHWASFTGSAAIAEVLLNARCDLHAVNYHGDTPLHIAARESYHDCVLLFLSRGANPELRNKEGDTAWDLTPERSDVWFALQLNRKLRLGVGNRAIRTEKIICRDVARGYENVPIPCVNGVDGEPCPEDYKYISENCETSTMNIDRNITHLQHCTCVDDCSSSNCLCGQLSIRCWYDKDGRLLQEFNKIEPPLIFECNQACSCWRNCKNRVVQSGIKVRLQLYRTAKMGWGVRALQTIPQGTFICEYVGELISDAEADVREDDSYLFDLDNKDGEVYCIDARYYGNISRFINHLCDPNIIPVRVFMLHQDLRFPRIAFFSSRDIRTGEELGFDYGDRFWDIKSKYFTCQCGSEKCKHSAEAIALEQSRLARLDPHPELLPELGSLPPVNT
Briefly: MDA-MB-231 H3K9me2 in-cell Western assay (EHMT2 ICW). The experiment is classed as cell-based. The following applies: Table VI; read-out: EHMT2 ICW IC50. The method in brief: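 MDA-MB-231 cells (3,000/well) were exposed to compound for 30 min at room temperature and then 48 h at 37 °C, fixed with paraformaldehyde, and stained with anti-H3K9me2 (800 nm) plus DRAQ5 (700 nm). Per-well channel ratios gave percent inhibition, and IC50 came from a four-parameter fit of triplicate wells.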
The term IC50 denotes the concentration that inhibits the measured activity by half. In the case of `COc1cc2c(C)nc(N3CCOCC3)nc2cc1OCCCN1CCCC1` [Compound 762], the IC50 was over 10000 nM.
Take `CNc1nc(C2CN(C)C2)c2cc(OC)c(OCCCN3CCCC3)cc2n1` [Compound 753]: the IC50 is 1000 to 10000 nM.
In the case of `CNc1nc(C2CCN(C3CCOC3)CC2)c2cc(OC)c(OCCCN3CCCC3)cc2n1` (centres unmarked) [Compound 759], the IC50 lay in the range of 1000 to 10000 nM.
Turning to `COc1cc2c(C3CCN(C4CCOCC4)CC3)cc(C)nc2cc1OCCCN1CCCC1` [Compound 755], the IC50 was in the range of 100 to 1000 nM.
For `COc1cc2c(C3CCN(C4CCOC4)CC3)cc(C)nc2cc1OCCCN1CCCC1` (centres unmarked) [Compound 756], the IC50 lay in the range of 100 to 1000 nM.
Take `COc1ccc(Nc2nc(C)cc(NC3CCCOC3)n2)cc1OCCCN1CCCC1` (centres unmarked) [Compound 788]: the IC50 is 100 to 1000 nM.
Consider `COc1ccc(Nc2nc(C)cc(NC3CCOC3)n2)cc1OCCCN1CCCC1` (centres unmarked) [Compound 789], for which the IC50 is 100 to 1000 nM.
Turning to `COc1cc2c(C3CN(C)C3)nc(C)nc2cc1OCCCN1CCCC1` [Compound 754], the IC50 was over 10000 nM.
In the case of `CNc1cc(C2CCN(C3CCOCC3)CC2)c2cc(OC)c(OCCCN3CCCC3)cc2n1` [Compound 757], the IC50 is under 100 nM.
Consider `CNc1cc(C2CCN(C3CCOC3)CC2)c2cc(OC)c(OCCCN3CCCC3)cc2n1` (centres unmarked) [Compound 758], for which the IC50 is under 100 nM.
As to `COc1cc2c(C3CCN(C4CCOC4)CC3)nc(C)nc2cc1OCCCN1CCCC1` (centres unmarked) [Compound 760], the IC50 was over 10000 nM.
On to `CNc1cc2sccc2c(Nc2cc(OCCCN3CCCC3)c(OC)cn2)n1` [Compound 609], for which the IC50 is 1000 to 10000 nM.
For the molecule `CNc1nc(C2CCN(C)C2)c2cc(OC)c(OCCCN3CCCC3)cc2n1` (centres unmarked) [Compound 748], the IC50 is over 10000 nM.
With `COc1ccc(Nc2nc(C)cc(NC3CCCN(C)C3)n2)cc1OCCCN1CCCC1` (centres unmarked) [Compound 787], the IC50 fell in the range of 100 to 1000 nM.
As for `CNc1nc(C2CCCCN2C)c2cc(OC)c(OCCCN3CCCC3)cc2n1` (centres unmarked) [Compound 747], the IC50 was 1000 to 10000 nM.

Still in this experiment, the particulars now being: Table VII; read-out: EHMT2 ICW IC50.
Turning to `CNc1ccnc(Nc2ccc(OC)c(OCC3(O)CCN(C)C3)c2)n1` (centres unmarked) [Compound 1097], the IC50 was over 10000 nM.
Turning to `CNc1ccnc(Nc2ccc(OC)c(OCC[C@@H]3CCCN3)c2)n1` [Compound 1087], the IC50 was in the range of 1000 to 10000 nM.
Consider `CNc1ccnc(Nc2cnc(OC)c(ONCCN3CCCC3)c2)n1` [Compound 1064], for which the IC50 lay within 100 to 1000 nM.
Turning to `CNCCNCc1cc(Nc2nc(C)cc(NC)n2)ccc1OC` [Compound 1080], the IC50 fell in the range of 1000 to 10000 nM.
For the molecule `CNc1ccnc(Nc2ccc(OC)c(OC[C@H]3CN(C)CCO3)c2)n1` [Compound 1067], the IC50 is over 10000 nM.
Take `CNc1cc(C)nc(Nc2ccc(OC)c(CNCCN(C)C)c2)n1` [Compound 1101]: the IC50 lay in the range of 100 to 1000 nM.
As to `CNc1ccnc(Nc2ccc(OC)c(OC[C@@H]3CCN(C4CC4)C3)c2)n1` [Compound 1056], the IC50 is under 100 nM.
Consider `CNc1cc(C2CCOCC2)c2cc(OC)c(C#CCN3CCCC3)cc2n1` [Compound 1049], for which the IC50 is 100 to 1000 nM.
Still for that read-out and setting: in the case of `CNC[C@H](C)NCc1cc(Nc2nc(C)cc(NC)n2)ccc1OC` [Compound 1102] it was 100 to 1000 nM; in that of `CNc1cc(C)nc(Nc2ccc(OC)c(CNCCN3CCC3)c2)n1` [Compound 1081], under 100 nM; in that of `CNc1cc(C2CCOCC2)c2cc(OC)c(OCCCN3CC(O)C3)cc2n1` [Compound 1091], 100 to 1000 nM.
With `CNc1cc(C)nc(Nc2ccc(OC)c(COCCN(C)C)c2)n1` [Compound 1105], the IC50 was 1000 to 10000 nM.
In the case of `CNc1ccnc(Nc2cnc(OC)c(OCCCN3CCC3)c2)n1` [Compound 1050], the IC50 was in the range of 100 to 1000 nM.
In the case of `CCNc1cc(C)nc(Nc2ccc(OC)c(OC[C@H](O)CN3CCCC3)c2)n1` [Compound 1106], the IC50 was 100 to 1000 nM.
Turning to `CNCC(C)COc1cc(Nc2nccc(NC)n2)ccc1OC` (centres unmarked) [Compound 1086], the IC50 was 1000 to 10000 nM.
On to `CCN1CC[C@@H](COc2cc(Nc3nccc(NC)n3)ccc2OC)C1` [Compound 1055], for which the IC50 is 100 to 1000 nM.
For the molecule `CNC[C@@H](O)COc1cc(Nc2nccc(NC)n2)ccc1OC` [Compound 1054], the IC50 fell in the range of 1000 to 10000 nM.
On to `CCN1CCO[C@H](COc2cc(Nc3nccc(NC)n3)ccc2OC)C1` [Compound 1071], for which the IC50 is over 10000 nM.
Same read-out and setting: to `CNc1cc(C)nc(Nc2ccc(OC)c(OC[C@H](O)CN3CC(C)C3)c2)n1` [Compound 1099] belongs 100 to 1000 nM.
For `CNc1cc2cc(OCCCN3CCCC3)c(OC)cc2cc1Cl` [Compound 1043], the IC50 is 1000 to 10000 nM.
Consider `CNc1ccnc(Nc2ccc(OC)c(OC[C@H](O)CN3CCC3)c2)n1` [Compound 1093], for which the IC50 fell in the range of 100 to 1000 nM.
`CNc1ccnc(Nc2ccc(OC)c(OC[C@H](CN3CCCC3)OC)c2)n1` [Compound 1082]: the IC50 is over 10000 nM.
As for `CNCCNCc1cc(Nc2nccc(NC)n2)ccc1OC` [Compound 1076], the IC50 is 1000 to 10000 nM.
In the case of `CNCCNC(C)c1cc(Nc2nc(C)cc(NC)n2)ccc1OC` (centres unmarked) [Compound 1095], the IC50 is 1000 to 10000 nM.
Take `CNc1ccnc(Nc2cnc(OC)c(OC[C@@H]3CCN(C)C3)c2)n1` [Compound 1065]: the IC50 fell in the range of 100 to 1000 nM.
On to `CNC[C@H](COc1cc(Nc2nccc(NC)n2)ccc1OC)OC` [Compound 1066], for which the IC50 was over 10000 nM.
The same measure, in the same setting: in the case of `CNc1cc(C)c2cc(OC)c(OC[C@H](C)CN3CCC3)cc2n1` [Compound 1088] it was 100 to 1000 nM.
As to `CNCCCOc1cc(Nc2nccc(NC)n2)cnc1OC` [Compound 1053], the IC50 was 1000 to 10000 nM.
In the case of `CNc1ccnc(Nc2ccc(OC)c(CNCCN3CCC3)c2)n1` [Compound 1075], the IC50 was 100 to 1000 nM.
`CNc1ccnc(Nc2ccc(OC)c(OC[C@H](O)CN3CCC3)c2)n1` [Compound 1047]: the IC50 lay within 100 to 1000 nM.
As to `CNC[C@@H](COc1cc(Nc2nccc(NC)n2)ccc1OC)OC` [Compound 1084], the IC50 is over 10000 nM.
As for `CCN1CCO[C@@H](COc2cc(Nc3nccc(NC)n3)ccc2OC)C1` [Compound 1068], the half-inhibitory concentration (IC50) is over 10000 nM.
The same measure, in the same setting: in the case of `CNc1ccnc(Nc2ccc(OC)c(OC[C@@H](C)CN3CCC3)c2)n1` [Compound 1092] it was 1000 to 10000 nM; in that of `CNCCCOc1cc(Nc2nccc(NC)n2)ccc1OC` [Compound 1052], 1000 to 10000 nM.
Regarding `CNc1cc(C)nc(Nc2cnc(OC)c(CNCCN3CCCC3)c2)n1` [Compound 1063], the IC50 was in the range of 100 to 1000 nM.
Take `CNc1cc(C)nc(Nc2ccc(OC)c(CNCCN3CC[C@@H](F)C3)c2)n1` [Compound 1094]: the IC50 lay in the range of 100 to 1000 nM.
Regarding `CNc1ccnc(Nc2ccc(OC)c(OCCC(C)N3CCC3)c2)n1` (centres unmarked) [Compound 1060], the half-inhibitory concentration (IC50) lay within 1000 to 10000 nM.
Take `CNc1ccnc(Nc2ccc(OC)c(CNC[C@H]3CCCN3)c2)n1` [Compound 1062]: the IC50 was over 10000 nM.
Take `CNC[C@@H](C)NCc1cc(Nc2nc(C)cc(NC)n2)ccc1OC` [Compound 1103]: the IC50 was 1000 to 10000 nM.
As for `CNc1ccnc(Nc2ccc(OC)c(ONC[C@@H]3CCCN3)c2)n1` [Compound 1061], the IC50 was over 10000 nM.
As for `CNc1ccnc(Nc2cnc(OC)c(OCCCN3CCCC3)c2)n1` [Compound 1048], the IC50 lay in the range of 100 to 1000 nM.
For the molecule `CNc1ccnc(Nc2ccc(OC)c(OCCC(C)NC)c2)n1` (centres unmarked) [Compound 1073], the IC50 is 1000 to 10000 nM.
Take `CNc1cc(C)nc(Nc2ccc(OC)c(COCCN3CCCC3)c2)n1` [Compound 1104]: the IC50 lay within 100 to 1000 nM.
Regarding `CCN1CCC(O)(COc2cc(Nc3nccc(NC)n3)ccc2OC)C1` (centres unmarked) [Compound 1096], the IC50 was over 10000 nM.
With `CNc1ccnc(Nc2ccc(OC)c(OC[C@H]3CNCCO3)c2)n1` [Compound 1069], the IC50 is over 10000 nM.
`CNc1ccnc(Nc2cnc(OC)c(OC[C@@H]3CCN(C4CC4)C3)c2)n1` [Compound 1051]: the IC50 was under 100 nM.
As for `CNc1ccnc(Nc2ccc(OC)c(OC[C@@H](CN3CCCC3)OC)c2)n1` [Compound 1083], the IC50 lay in the range of 100 to 1000 nM.
As to `CNc1ccnc(Nc2ccc(OC)c(OC[C@@H]3CNCCO3)c2)n1` [Compound 1072], the IC50 was over 10000 nM.
On to `CNc1ccnc(Nc2ccc(OC)c(OCC(C)CN3CCC3)c2)n1` (centres unmarked) [Compound 1085], for which the IC50 fell in the range of 100 to 1000 nM.
For the molecule `CNc1cc(C)nc(Nc2ccc(OC)c(OC[C@H](O)CN3CC(C)C3)c2)n1` [Compound 1100], the IC50 lay within 1000 to 10000 nM.
